Key:
A549 cells = test: Cell viability, Annexin V/PI assay; assay type: cell-based; conditions: A549 (Non-small cell lung cancer); 48 hours; KPT-330 0.1-1.0 μM, CS 1-3 mM, single agent or combination
Method: (§1) Cell lines were purchased from the cell line repositories ATCC (Manassas, Va.) or DSMZ (Braunschweig, Germany). These included MCL cell lines: JeKo-1, Mino; TCL cell lines: Karpas-299, SR-786; DLBCL cell lines: OCI-Ly1 (LY-1), OCI-Ly3 (LY-3), OCI-Ly19 (LY-19), SU-DHL-6 (DHL-6); MM cell lines: RPMI, U266, OPM2, Xgl, KMS2; ALL cell lines: CRL-1783; non-small cell lung cancer: NCI-H460, A549, HCC827; small cell lung cancer: H1048; sarcoma: Fuji, SW872. Cell lines were cultured according to instruction.
(§2) KPT-330 purchased from Selleckchem (cat no: S7252) was dissolved in DMSO while CS (Santa Cruz, Calif.S 2016-36-6), sodium salicylate (Sigma-Aldrich, cat no: S3007), acetyl salicylate (Sigma-Aldrich, cat no: CAS 50-78-2) was diluted in PBS. Ketorolac (Sigma-Aldrich, cat no: 1356665), Bortezomib (Selleckchem, cat no: S1013), gemcitabine (Sigma-Aldrich, cat no: G6423), Leptomycin-B (Sigma-Aldrich, cat no: L2913-2X) and KPT-185 (Selleckchem, cat no: S7125) were dissolved in DMSO. The concentration range of KPT-330 was 0.05-1.0 μM while CS was 1-3 mM were used for ex vivo treatment and incubation time ranged from 24 hours to 72 hours. For the PARP inhibitor assay, olaparib 10 μM (SelleckChem, cat no: AZD2281 Ku-0059436) was used.
(§3) The viability assessment for cell lines and primary patients samples were conducted with the Annexin V/PI method.

CRL-1873 (RS4-11 cells) = test: Cell viability, Annexin V/PI assay; assay type: cell-based; conditions: CRL-1873 (ALL); 48 hours; KPT-330 0.1-1.0 μM, CS 1-3 mM, single agent or combination
Method: as §1, §2, §3

H1048 cells = test: Cell viability, Annexin V/PI assay; assay type: cell-based; conditions: H1048 (Small-cell lung cancer); 48 hours; KPT-330 0.1-1.0 μM, CS 1-3 mM, single agent or combination
Method: as §1, §2, §3

Karpas-299 cells = test: Cell viability, Annexin V/PI assay; assay type: cell-based; conditions: Karpas-299 (TCL); 48 hours; KPT-330 0.1-1.0 μM, CS 1-3 mM, single agent or combination
Method: as §1, §2, §3

Mino cells = test: Cell viability, Annexin V/PI assay; assay type: cell-based; conditions: Mino (MCL); 48 hours; KPT-330 0.1-1.0 μM, CS 1-3 mM, single agent or combination
Method: as §1, §2, §3

OCI-Ly19 cells = test: Cell viability, Annexin V/PI assay; assay type: cell-based; conditions: OCI-Ly19 (DLBCL); 48 hours; KPT-330 0.1-1.0 μM, CS 1-3 mM, single agent or combination
Method: as §1, §2, §3

RPMI (MM cell line) = test: Cell viability, Annexin V/PI assay; assay type: cell-based; conditions: 48 hours, KPT-330 0.1-1.0 μM, CS 1-3 mM, single agent or combination
Method: as §1, §2, §3

SR-786 cells = test: Cell viability, Annexin V/PI assay; assay type: cell-based; conditions: SR-786 (TCL); 48 hours; KPT-330 0.1-1.0 μM, CS 1-3 mM, single agent or combination
Method: as §1, §2, §3

U266 cells = test: Cell viability, Annexin V/PI assay; assay type: cell-based; conditions: U266 (MM); 48 hours; KPT-330 0.1-1.0 μM, CS 1-3 mM, single agent or combination
Method: as §1, §2, §3

Xg1 cells = test: Cell viability, Annexin V/PI assay; assay type: cell-based; conditions: Xg1 (MM); 48 hours; KPT-330 0.1-1.0 μM, CS 1-3 mM, single agent or combination
Method: as §1, §2, §3

DHL6 cells = test: Cell viability, Annexin V/PI assay; conditions: DHL6 (DLBCL); 48 hours; KPT-330 0.1-1.0 μM, CS 1-3 mM, single agent or combination
Method: as §1, §2, §3

BCWM cells = test: Cell viability, Annexin V/PI assay; assay type: cell-based; conditions: BCWM (WM); 48 hours; KPT-330 0.1-1.0 μM, CS 1-3 mM, single agent or combination
Method: (§4) All cell lines were obtained from commercial vendors (ATCC or DSMZ), which includes mantle cell lymphoma (MCL) cell lines: Jeko-1, Mino, JVM-2; T-cell lymphoma (TCL) cell lines: SU-DHL-1, Karpas-299, SR-786 and HUT-78; and diffuse large B-cell lymphoma cell lines: OCI-Ly1, SU-DHL-2, OCI-Ly3, SU-DHL-6; Waldenstrom macroglobulinemia (WM) cell lines: BCWM, MWCL, RPCI; sarcoma cell lines: FUJI, SW872, and pancreatic cancer cell lines: PANC-1.
(§5) WM, TCL, and MCL cell lines were cultured in RPMI media supplemented with 10% fetal bovine serum while DLBCL cell lines were cultured in IMDM media with 10% human serum (Sigma). Pancreatic cancer and sarcoma cell lines were cultured in DMEM with 10% fetal bovine serum. All cell lines were assessed for their viability before use in experiments. Only cells with the viability of 85% or greater were used.

MWCL cells = test: Cell viability, Annexin V/PI assay; assay type: cell-based; conditions: MWCL (WM); 48 hours; KPT-330 0.1-1.0 μM, CS 1-3 mM, single agent or combination
Method: as §4, §5

Panc-1 cells = test: Cell viability, Annexin V/PI assay; assay type: cell-based; conditions: Panc-1 (Pancreatic cancer); 48 hours; KPT-330 0.1-1.0 μM, CS 1-3 mM, single agent or combination
Method: as §4, §5

RPCI cells = test: Cell viability, Annexin V/PI assay; assay type: cell-based; conditions: RPCI (WM); 48 hours; KPT-330 0.1-1.0 μM, CS 1-3 mM, single agent or combination
Method: as §4, §5

JeKo-1 cells = test: Mitotic index calculation; assay type: cell-based; conditions: 48 hours, light microscopy
Method: Following the incubation of respective time periods, cytospin slides were prepared and stained with Hema 3 staining on the many factors protocol. Subsequently the mitotic index was calculated by the number of mitoses evaluated in 10 high power fields (×400).

SMILES | % viability normalized for respective controls (A549 cells) | % viability normalized for respective controls (CRL-1873 (RS4-11 cells)) | % viability normalized for respective controls (H1048 cells) | % viability normalized for respective controls (Karpas-299 cells) | % viability normalized for respective controls (Mino cells) | % viability normalized for respective controls (OCI-Ly19 cells) | % viability normalized for respective controls (RPMI (MM cell line)) | % viability normalized for respective controls (SR-786 cells) | % viability normalized for respective controls (U266 cells) | % viability normalized for respective controls (Xg1 cells) | % viability normalized for respective controls (DHL6 cells) | % viability normalized for respective controls (BCWM cells) | % viability normalized for respective controls (MWCL cells) | % viability normalized for respective controls (Panc-1 cells) | % viability normalized for respective controls (RPCI cells) | mitotic index (MI) (JeKo-1 cells)
C[N+](C)(C)CCO.O=C([O-])c1ccccc1O [CS, choline salicylate] | 94% | 91.5% | 92% | 80% | 86% | 88% | 85% | 100% | 93% | 95% | 101% | 84% | 89% | 90% | 92% | 166 /10 HPF
O=C(/C=C\n1cnc(-c2cc(C(F)(F)F)cc(C(F)(F)F)c2)n1)NNc1cnccn1 [KPT-330, (Z)-3-[3-[3,5-bis (trifluoromethyl)phenyl]-1,2,4-triazol-1-yl]-N′-pyrazin-2-ylprop-2-enehydrazide] | 101% | 79% | 81% | 88% | 89% | 57% | 87.5% | 91% | 75% | 76% | – | 69% | 65% | 90% | 63% | 153 /10 HPF

Source: patent publication US20220218725A1, “METHODS AND MATERIALS FOR TREATING CANCER” (Mayo Foundation for Medical Education and Research, priority 2019, published 2022)
